Results published in US9707417B2, “Use of benzotropolone derivatives as UV absorbers and antioxidants and their use in sunscreens and/or cosmetic compositions” (BASF SE, priority 2008, dated 2017).
Entries after “also recorded” stand apart in the source; their conditions may differ.

What was measured:
[1] = Measurement of photostability (irradiation of highly diluted solution of the UV-filter, analysis by UV-spectroscopy); type: physicochemical; settings: for Half time: photostability, diluted solution in ethanol, first order kinetic model, half-life under conditions of COLIPA standard sun irradiation
Protocol: The method used for assessment of photostability is based on the irradiation of a highly diluted solution of the UV-filter.
The analysis after certain doses of irradiation is performed by UV-spectroscopy. The concentration of the UV-absorber in ethanol is adjusted to values between 1·10^−5 and 1·10^−6 mol/l, such that the absorbance of the solution in cuvette of 1 cm optical path length is ≦than 0.2. The mutual protection of filter molecules can be excluded under such conditions.
Prior to irradiation of a sample the UVB-intensity at the sample position is measured with a UV-radiometer (RM-12, Dr. Gröbel Electronic GmbH).
This radiometer is calibrated by comparison with a measurement of the spectral output of the metal halide lamp (including light guide and cut-off filter) using a wavelength-resolved radiometer (Gamma C11).
Therefore the relationship of the reading of the RM-12 radiometer and the corresponding spectral output of the lamp is known, and one is able to determine the wavelength-resolved intensities by measuring the UVB-intensity. By changing the distance between the end of the light guide and the cuvette, the UVB-intensity can be varied in the range of 100 μW/cm^2 and 4500 μW/cm^2.
For sample irradiation the highest possible intensity was used (4.5 mW/cm^2 UVB-intensity measured with the Macam 103 radiometer).
The irradiation time is varied from 0 to 180 min.
The dose the sample has received after 180 min corresponds to 60 MED.
During irradiation the sample was stirred. After certain intervals of irradiation, the samples were analyzed in a UV-spectrometer (Perkin Elmer, Lambda 16).
From the absorbance values at each dose of irradiation the concentration may be calculated using Lambert-Beer's law.
In order to get the half-life of the substance, a first order kinetic model was fitted to the experimental data. Since the UV-spectrum of the lamp and the UV-spectrum of the COLIPA standard sun are known, one can calculate the respective half-life of the UV-absorber under conditions of COLIPA standard sun irradiation [Bernd Herzog, Stefan Müller, Myriam Sohn, Uli Osterwalder, “New Insight and Prediction of Photostability of Sunscreens”, SÖFW Journal 133, 26-36 (2007)].

[2] = UV shielding properties (UV spectra in ethanol); type: physicochemical; design: Absorption maximum 1 λmax / Absorption maximum 2 λmax: unit not given here; settings: for Absorption maximum 1 A^1%1 cm / Absorption maximum 1 λmax / Absorption maximum 2 A^1%1 cm / Absorption maximum 2 λmax: UV spectra in ethanol
Text: The UV shielding properties of the benzotropolone derivatives were investigated by measuring their UV spectra in ethanol.
In the following table the investigated absorption maxima (λmax) together with the corresponding A^1%1cm values are listed.

[3] = DPPH assay (antioxidative / antiradical activity); type: biochemical; settings: comparison with vitamin C, vitamin E, resveratrol
Text: For tests of antioxidative activity, the DPPH assay is used. DPPH (2,2-Diphenyl-1-picryl-hydrazyl) is a stable radical, which absorbs in its radical form at 515 nm. Upon reduction by an antioxidant (AH), the absorption disappears: DPPH.+AH→DPPH—H+A. (1)
The rate of reaction (1) can be rather different for different antioxidants.
In the test, the ratio of the molar concentrations of the antioxidant and DPPH is varied (this ratio is named “EC”=efficient concentration), and the concentration of DPPH in the equilibrium state is measured for each ratio. […] The smaller the EC50 value, the more efficient is the antioxidant. Thus, the inverse, 1/EC50, can be used to quantify the antiradical power.
Solutions of DPPH and the antioxidants in ethanol are prepared separately and added together for starting the reaction (0.5 cm^3 of a 250 μM antioxidant solution is added to 2.5 cm^3 of a 100 μM DPPH solution). The absorption is measured using a Perkin Elmer Lambda 20 spectrophotometer.

[4] = Solubility in water; type: physicochemical

| Structure (SMILES) | photostability (in words) [1] | Half time [1] [h] | shielding properties in the UV region (in words) [2] | Absorption maximum 1 A^1%1 cm [2] | Absorption maximum 1 λmax [2] | Absorption maximum 2 A^1%1 cm [2] | Absorption maximum 2 λmax [2] | antioxidant/radical scavenging power compared to state-of-the-art antioxidants (in words) [3] | Solubility in water [4] [%] |
| --- | --- | --- | --- | --- | --- | --- | --- | --- | --- |
| COc1cc2cc(C(=O)O)cc(O)c(=O)c2c(O)c1O [Compound B-4] | high photostability | 16.6 | high shielding properties in the UV region; also recorded: UV-C/UV-B shielding properties as well as UV-A shielding properties | 864 | 307 | 305 | 396 | – | – |
| CCCCCCCC/C=C\CCCCCCCCOc1cc2cc(C(=O)OC)cc(O)c(=O)c2c(O)c1O [Compound B-32] | high photostability | 16.6 | – | 574 | 310 | 203 | 404 | – | – |
| COC(=O)c1cc(O)c(=O)c2c(O)c(O)c(OCCCO[C@@H]3O[C@H](CO)[C@@H](O)[C@H](O)[C@H]3O)cc2c1 [Compound B-13] | high photostability | 51.3 | – | 573 | 310 | 208 | 404 | more effective in the DPPH assay than the state-of-the-art antioxidant resveratrol | 10.467 |
